Measured values published in US10626113B2, “Phosphodiesterase inhibitors and uses thereof” (THE TRUSTEES OF COLUMBIA UNIVERSITY IN THE CITY OF NEW YORK, priority 2012, dated 2020).
pIC50: −log10 of the molar value.

Columns and labels:
PDE5 = PDE5 (Homo sapiens (Human), UniProt O76074); assay: PDE5 inhibition assay (BPS PDE assay kit, fluorescence polarization); assay type: biochemical
Description: Materials and Methods: PDE5 inhibition was assayed at BPS Bioscience (San Diego, Calif.) using BPS PDE assay kits (BPS Catalog number 60300, enzyme lot 090810). Test compounds were supplied as liquid solutions of 10 mM concentration in DMSO. Sildenafil, used as a standard was dissolved in DMSO. Intermediate dilutions were 10% DMSO in PDE assay buffer and tests at ranges from 0.1 to 100 nM. 0.1 ng of enzyme was used per reaction, and the substrate was 100 nM FAM-cGMP.
(§1) Assay conditions: A series of dilutions of the test compounds were prepared with 10% DMSO in assay buffer and 5 μl of the dilution was added to a 50 μl reaction so that the final concentration of DMSO is 1% in all of reactions. The enzymatic reactions were conducted at room temperature for 60 minutes in a 50 μl mixture containing PDE assay buffer, 100 nM FAM-cAMP or 100 nM FAM-cGMP, a PDE enzyme, and the test compound. After the enzymatic reaction, 100 μl of a binding solution (1:100 dilution of the binding agent with the binding agent diluent) was added to each reaction and the reaction was performed at room temperature for 60 minutes. Fluorescence intensity was measured at an excitation of 485 nm and an emission of 528 nm using a Tecan Infinite M1000 microplate reader.
(§2) Data analysis: PDE activity assays were performed in duplicate at each concentration. Fluorescence intensity is converted to fluorescence polarization using the Tecan Magellan6 software. The fluorescence polarization data were analyzed using the computer software, Graphpad Prism. The fluorescence polarization (FPt) in absence of the compound in each data set was defined as 100% activity. In the absence of PDE and the compound, the value of fluorescent polarization (FPb) in each data set was defined as 0% activity. The percent activity in the presence of the compound was calculated according to the following equation: % activity=(FP−FPb)/(FPt−FPb)×100%, where FP=the fluorescence polarization in the presence of the compound.
The values of % activity versus a series of compound concentrations were then plotted using non-linear regression analysis of Sigmoidal dose-response curve generated with the equation Y=B+(T−B)/1+10^((LogEC50-X)×Hill Slope), where Y=percent activity, B=minimum percent activity, T=maximum percent activity, X=logarithm of compound and Hill Slope=slope factor or Hill coefficient. The IC50 value was determined by the concentration causing a half-maximal percent activity.

PDE6 = PDE6 inhibition assay (fluorescence polarization); assay type: biochemical; conditions: Table 1
Description: as §1, with “The” for “Assay conditions: A series of dilutions of the test compounds were prepared with 10% DMSO in assay buffer and 5 μl of the dilution was added to a 50 μl reaction so that the final concentration of DMSO is 1% in all of reactions. The”
as §2, with “Fluorescence” for “Data analysis: PDE activity assays were performed in duplicate at each concentration. Fluorescence”
The IC50 value was determined by the concentration causing a half-maximal percent activity.

APP/PS1 mice = assay: Preliminary studies with sildenafil in APP/PS1 mice; assay type: in vivo; conditions: persist beyond the administration of the inhibitor
Description: Slices from transgenic mice treated with the compound had 226.23%±6.72 potentiation compared to 164.12%±10.37 in slices from vehicle-treated transgenic mice (FIG. 3). Residual potentiation recorded during the last 5 minutes of a 2 hr recording following tetanic stimulation of the Schaffer collateral fibers at the CA3-CA1 connection.

**Q.** `COc1ccc(CNc2c3c(nc4ccc(C#N)cc24)CCNC3)cc1Cl` [G, 10-((3-chloro-4-methoxybenzyl)amino)-1,2,3,4-tetrahydrobenzo[b][1,6]naphthyridine-8-carbonitrile] was tested. Which pIC50 (PDE5; Table 1, 100 nM FAM-cGMP) did it give?
**A.** 8.81

**Q.** And the pIC50 (PDE6)?
**A.** < 7.00

**Q.** Which “effects on synaptic and cognitive abnormalities in APP/PS1 mice” value (APP/PS1 mice) does the source give for `CCCc1nn(C)c2c(=O)[nH]c(-c3cc(S(=O)(=O)N4CCN(C)CC4)ccc3OCC)nc12` [sildenafil] here?
**A.** prolonged beneficial effects

**Q.** How did the pIC50 (PDE5; Table 1, 100 nM FAM-cGMP) turn out when `CCc1cc(C#N)cc2c(NCc3ccc(OC)c(Cl)c3)c3c(nc12)CCN(C)C3` [D, 10-[(3-chloro-4-methoxybenzyl)amino]-6-ethyl-2-methyl-1,2,3,4-tetrahydrobenzo[b][1,6]naphthyridine-8-carbonitrile] was run?
**A.** 10.15

**Q.** What about the pIC50 (PDE6) of the same molecule?
**A.** 7.52

**Q.** With `COc1ccc(CNc2c3c(nc4ccc(Br)cc24)CCN(C)C3)cc1Cl` [A, 8-bromo-N-(3-chloro-4-methoxybenzyl)-2-methyl-1,2,3,4-tetrahydrobenzo[b][1,6]naphthyridin-10-amine] as the molecule, how does the pIC50 (PDE5; Table 1, 100 nM FAM-cGMP) read?
**A.** 7.67

**Q.** `COc1ccc(CNc2c3c(nc4ccc(C#N)cc24)NCCNC3=O)cc1Cl` [E, 6-[(3-chloro-4-methoxybenzyl)amino]-5-oxo-2,3,4,5-tetrahydro-1H-[1,4]diazepino[5,6-b]quinoline-8-carbonitrile] was tested. Which pIC50 (PDE5; Table 1, 100 nM FAM-cGMP) did it give?
**A.** 7.36

**Q.** What about the pIC50 (PDE6) of the same molecule?
**A.** 5.18

**Q.** `COc1ccc(CNc2c3c(nc4ccc(Br)cc24)CCNC3)cc1Cl` [F, 8-bromo-N-(3-chloro-4-methoxybenzyl)-1,2,3,4-tetrahydrobenzo[b][1,6]naphthyridin-10-amine] was tested. Which pIC50 (PDE5; Table 1, 100 nM FAM-cGMP) did it give?
**A.** 8.27

**Q.** With `[2H]C([2H])(Nc1c2c(nc3ccc(C#N)cc13)CCN(C(C)=O)C2)c1ccc(OC)c(Cl)c1` [M] as the molecule, how does the pIC50 (PDE5; Table 3) read?
**A.** 10.36
